The subject of assay [1] is C57BL/6 mice given Cobalt 60 gamma radiation. As to the kind of experiment: Restoration of radiation-induced hair loss in mice, aerosol treatment (Example 2). Type of assay: in vivo, mouse. The note with it: mice pre-exposed to 5 Gy or 2.5 Gy, then 10 Gy at day 75; hair loss over approximately 20% of body; one micromolar by aerosol 15 min/day, 9 days of treatment. The procedure: C57BL/6 mice were given a Cobalt 60 gamma radiation treatment on Sep. 24, 2002 of either 10 Gy, 7.5 Gy, 5 Gy, or 2.5 Gy. The 10 Gy mice died at an average of 11.3 days after the radiation exposure. All of the other mice in the other radiation exposure groups survived at least until Dec. 18, 2002. At 75 days after the initial radiation exposure, the 5 Gy and 2.5 Gy mice were administered a 10 Gy dose of Cobalt 60 gamma radiation. On the day of the second 10 Gy radiation exposure, it was noted that the 5 Gy and 2.5 Gy mice had hair loss over approximately 20% of their body with the most significant hair loss in their leg areas and around their ears. Half of the 5 Gy and 2.5 Gy (N=10) mice were administered a one micromolar Homspera™ dose by aerosol for 15 min/day beginning the day of the 10 Gy radiation exposure.

Assay [2] has as its system C57BL/6 mouse irradiated with 7.5 Gy gamma radiation. As to the kind of experiment: Hair regrowth in an irradiated mouse (Example 1). Type of assay: in vivo. Particulars: 12 days of treatment, FIG. 1A, untreated control showed no new growth hair. An excerpt:
FIG. 1A. A C57BL/6 mouse irradiated with 7.5 Gy gamma radiation on Sep. 24, 2003 and given 12 days of [Sar, Met(02)^11]-substance P (Homspera™) treatment.
FIG. 1B. A C57BL/6 mouse irradiated with 7.5 Gy gamma radiation on Sep. 24, 2003 and given no Homspera™ treatment.
A C57BL/6 mouse was irradiated with 7.5 Gy gamma radiation on Sep. 24, 2003 and given 12 days of [Sar, Met(02)^11]-substance P (Homspera™) treatment. […] As a control, a C57BL/was 6 mouse irradiated with 7.5 Gy gamma radiation on Sep. 24, 2003 and given no Homspera™ treatment. No new growth hair was observed.

Assay [3] concerns C57BL/6 mice, lethal dose of gamma radiation (7.75 Gy). As to the kind of experiment: Hair retention and immune status after a lethal dose of gamma radiation (Example 3). Type of assay: in vivo, mouse. The note with it: for hair retention: photographed at Day +56 and Day +90 after radiation. An excerpt: FIG. 2A. Group 1 (90 day treatment of Homspera™) mice photographed at day 56 after radiation.
FIG. 2B. Group 2 (35 day treatment of Homspera™) mice photographed at day 56 after radiation.
FIG. 2C. Group 1 (90 day treatment of Homspera™) mice photographed at day 90 after radiation.
FIG. 2D. Group 2 (35 day treatment of Homspera™) mice photographed at day 90 after radiation.
C57BL/6 mice were divided into three groups. Groups 1 and 2 underwent a lethal dose of gammna radiation (7.75 Gy) on July 11th. Group 1 mice were treated with Homspera™ (50 micromolar for 35 days and then a maintenance dose of 10 micromolar until +90 days), and then they were killed at +90 days post-lethal radiation (October 9th). Their immune system status was normal compared to control mice (Group 3) that had not been treated with radiation and had not been treated with Homspera™. Group 2 mice received Homspera™ treatment for 35 days after radiation, and then the Homspera™ treatment was completely stopped.
There are two sets of pictures of the Group 1 and Group 2 mice: one set of pictures taken on September 5th at Day +56 after radiation (FIGS. 2A and 2B), and the other on October 9th at Day +90 after radiation (FIGS. 2C and 2D).

In the case of “[Sar, Met(02)^11]-substance P [Homspera™]”, in assay [1], the “restoration of hair loss” value is reported as “restored their hair loss”. In assay [2], the new hair growth entry is given as “New growth (black) hair was observed”. Moreover, the hair retention entry in assay [3] (Group 1: 7.75 Gy, 90 day treatment) is “retained their hair”; in assay [3] (Group 2: 7.75 Gy, 35 day treatment then stopped), “retained their hair”. In addition, the immune system status result in assay [3] (Group 1: 7.75 Gy, 50 micromolar for 35 days, then 10 micromolar until +90 days, at +90 days, compared to untreated non-irradiated control mice (Group 3)) is “normal”.
